Structures are written as SMILES. Bounds are passed on as bounds.

For the first assay, the target named is T1, KSP (Homo sapiens, UniProt P52732).
T1 sequence (P52732 1-1056): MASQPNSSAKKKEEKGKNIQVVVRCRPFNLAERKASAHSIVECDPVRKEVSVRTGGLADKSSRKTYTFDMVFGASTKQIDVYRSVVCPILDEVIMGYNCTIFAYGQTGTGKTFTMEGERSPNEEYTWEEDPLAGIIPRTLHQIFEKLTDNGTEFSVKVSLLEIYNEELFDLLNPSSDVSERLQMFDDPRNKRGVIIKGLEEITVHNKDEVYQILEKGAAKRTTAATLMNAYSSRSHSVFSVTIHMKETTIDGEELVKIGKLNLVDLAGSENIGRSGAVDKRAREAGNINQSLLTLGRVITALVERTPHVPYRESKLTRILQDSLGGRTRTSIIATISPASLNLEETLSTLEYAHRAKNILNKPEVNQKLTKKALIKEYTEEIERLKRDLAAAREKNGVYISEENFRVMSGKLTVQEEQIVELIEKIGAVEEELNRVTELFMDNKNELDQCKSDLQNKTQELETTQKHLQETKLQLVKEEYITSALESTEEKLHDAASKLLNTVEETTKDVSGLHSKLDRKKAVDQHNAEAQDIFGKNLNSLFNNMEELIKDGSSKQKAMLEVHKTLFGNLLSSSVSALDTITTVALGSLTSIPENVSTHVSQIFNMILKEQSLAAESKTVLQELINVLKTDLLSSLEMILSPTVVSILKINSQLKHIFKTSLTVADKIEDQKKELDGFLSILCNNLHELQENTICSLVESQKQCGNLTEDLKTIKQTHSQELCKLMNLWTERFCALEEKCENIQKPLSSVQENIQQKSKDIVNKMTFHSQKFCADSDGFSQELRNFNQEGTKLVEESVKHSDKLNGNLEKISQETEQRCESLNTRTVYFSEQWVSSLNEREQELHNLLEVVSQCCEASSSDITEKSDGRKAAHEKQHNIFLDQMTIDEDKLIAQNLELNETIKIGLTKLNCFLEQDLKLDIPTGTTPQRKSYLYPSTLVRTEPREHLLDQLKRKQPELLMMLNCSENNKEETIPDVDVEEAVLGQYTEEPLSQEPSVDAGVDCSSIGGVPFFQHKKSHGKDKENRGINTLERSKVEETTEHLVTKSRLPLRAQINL
Kind of assay: KSP inhibitory activity, end-point assay. Format: biochemical. The settings on record: KSP inhibitory activity based on end-point assay; read-out: IC50 Rating. An excerpt:
The inhibitory activity of the present compounds towards KSP may be assayed by methods known in the art, for example, by using the methods as described in the examples.
As usually defined, the IC50 is the concentration at which inhibition is half-maximal. Turning to `CCOC(=O)c1[nH]c2cc3c(nc2c1NCCOC)CCC(C(C)(C)C)C3` (stereo not shown) [Example 64], the IC50 is more than 10 µM.

Take `CC(C)(C)C1CCc2nc3cc(CO)[nH]c3cc2C1` (stereo not shown) [Example 23]: the IC50 is less than 0.1 µM.

Consider `CCOC(=O)c1[nH]c2cc3c(nc2c1Br)CCC(C(C)(C)C)C3` (stereo not shown) [Example 34], for which the IC50 is more than 10 µM.

As to `CC(C)(C)C1CCc2nc3c(C#CCCCO)c(C(N)=O)[nH]c3cc2C1` (stereo not shown) [Example 58], the IC50 was more than 10 µM.

Turning to `COc1cccc(-c2c(C(N)=O)[nH]c3cc4c(nc23)CCC(C(C)(C)C)C4)c1` (stereo not shown) [Example 116], the IC50 is more than 10 µM.

Take `CC(=NO)c1cc2nc3c(cc2[nH]1)CC(C(C)(C)C)CC3` (stereo not shown) [Example 31]: the IC50 is more than 10 µM.

With `C=CCC(O)c1cc2nc3c(cc2[nH]1)CC(C(C)(C)C)CC3` (stereo not shown) [Example 114], the IC50 fell in the range of 0.1 to 1 µM.

As to `CC(C)(C)C1CCc2nc3c(C(N)=O)c[nH]c3cc2C1` (stereo not shown) [Example 82], the 50% inhibitory concentration (IC50) was 0.1 to 1 µM.

As for `CC(C)(C)C1CCc2nc3c(C(=O)NCCN)c[nH]c3cc2C1` (stereo not shown) [Example 73], the IC50 was more than 10 µM.

Regarding `CCOC(=O)c1cc2nc3c(cc2[nH]1)CC(C(C)(C)C)CC3` (stereo not shown) [Example 1], the IC50 fell in the range of 1 to 10 µM.

Take `CC(C)(C)C1CCc2nc3cc(C(=O)NCCN4CCNCC4)[nH]c3cc2C1` (stereo not shown) [Example 92]: the IC50 was 1 to 10 µM.

Regarding `CC(C)(C)C1CCc2nc3cc(C(=O)NCCCCCCN)[nH]c3cc2C1` (stereo not shown) [Example 14], the IC50 was in the range of 0.1 to 1 µM.

As for `CC(=O)NC(Cc1c(C(N)=O)[nH]c2cc3c(nc12)CCC(C(C)(C)C)C3)C(N)=O` (stereo not shown) [Example 44], the IC50 is more than 10 µM.

For `CC(C)(C)C1CCc2nc3c(-c4cccc(OC(F)(F)F)c4)c(C(N)=O)[nH]c3cc2C1` (stereo not shown) [Example 117], the IC50 is more than 10 µM.

Consider `CC(C)(C)C1CCc2nc3cc(C(=O)NCCCO)[nH]c3cc2C1` (stereo not shown) [Example 9], for which the 50% inhibitory concentration (IC50) is 0.1 to 1 µM.

`CCOC(=O)c1[nH]c2cc3c(nc2c1CC(O)CO)CCC(C(C)(C)C)C3` (stereo not shown) [Example 54]: the IC50 is more than 10 µM.

Consider `CC(C)(C)C1CCc2nc3cc(/C=N/NC(N)=S)[nH]c3cc2C1` (stereo not shown) [Example 43], for which the IC50 was more than 10 µM.

With `C=Cc1cc2nc3c(cc2[nH]1)CC(C(C)(C)C)CC3` (stereo not shown) [Example 28], the IC50 fell in the range of 1 to 10 µM.

For the molecule `CC(C)(C)C1CCc2nc3cc(C(N)=O)[nH]c3cc2C1` (stereo not shown) [Example 2], the IC50 was less than 0.1 µM.

As for `CCC(O)c1cc2nc3c(cc2[nH]1)CC(C(C)(C)C)CC3` (stereo not shown) [Example 113], the IC50 is 0.1 to 1 µM.

On to `CCOC(=O)c1cc(NC(=O)c2cc3nc4c(cc3[nH]2)CC(C(C)(C)C)CC4)c[nH]1` (stereo not shown) [Example 98], for which the IC50 is more than 10 µM.

`CC(C)(C)C1CCc2nc3c(CC(O)CO)c(C(N)=O)[nH]c3cc2C1` (stereo not shown) [Example 55]: the IC50 is more than 10 µM.

Take `CC(C)(C)C1CCc2nc3c(CCC(N)=O)c(C(N)=O)[nH]c3cc2C1` (stereo not shown) [Example 40]: the IC50 lay in the range of 1 to 10 µM.

`CC(C)(C)C1CCc2nc3cc(C(=O)N[C@H](CN)c4ccccc4)[nH]c3cc2C1` (stereo partly shown) [Example 122]: the IC50 was 0.1 to 1 µM.

As for `CC(C)(C)C1CCc2nc3c(N)c(C(N)=O)[nH]c3cc2C1` (stereo not shown) [Example 27], the IC50 lay within 0.1 to 1 µM.

For the molecule `CC(C)(C)C1CCc2nc3c(C(=O)Nc4ncccn4)c[nH]c3cc2C1` (stereo not shown) [Example 94], the IC50 was more than 10 µM.

Regarding `CCOC(=O)c1[nH]c2cc3c(nc2c1CCCN)CCC(C(C)(C)C)C3` (stereo not shown) [Example 51], the IC50 was more than 10 µM.

Turning to `COCCOCc1cc2nc3c(cc2[nH]1)CC(C(C)(C)C)CC3` (stereo not shown) [Example 86], the IC50 is 0.1 to 1 µM.

As for `CCOC(=O)c1[nH]c2cc3c(nc2c1CC)CCC(C(C)(C)C)C3` (stereo not shown) [Example 47], the IC50 is more than 10 µM.

With `CCOC(=O)c1[nH]c2cc3c(nc2c1NCCCO)CCC(C(C)(C)C)C3` (stereo not shown) [Example 67], the IC50 is more than 10 µM.

For the molecule `CCOC(=O)c1[nH]c2cc3c(nc2c1C)CCC(C(C)(C)C)C3` (stereo not shown) [Example 45], the half-inhibitory concentration (IC50) was more than 10 µM.

In the case of `CNNC(=O)c1cc2nc3c(cc2[nH]1)CC(C(C)(C)C)CC3` (stereo not shown) [Example 100], the IC50 is more than 10 µM.

Staying with this assay, now noted: numerical IC50 values for representative compounds; read-out: IC50.
In the case of `CC(C)(C)C1CCc2nc3cc(CO)[nH]c3cc2C1` (stereo not shown) [Example 23], the IC50 is 0.04 µM.

On to `CC(C)(C)C1CCc2nc3cc(C(N)=O)[nH]c3cc2C1` (stereo not shown) [Example 2], for which the IC50 came to 0.03 µM.

The values are drawn from US20100068181A1, “PYRROLO [3, 2-A] PYRIDINE DERIVATIVES FOR INHIBITING KSP KINESIN ACTIVITY” (Schering Corporation, priority 2006, published 2010).
